By GI50 is commonly meant the concentration that inhibits growth by half. One may read the TGI as the concentration giving total growth inhibition. A low value points to more potent growth arrest.

Here are results for six compounds from PubChem BioAssay (NCI).

Some test systems named below: A549 NSCLC; DU-145 prostate; UO-31 renal; SNB-75 CNS; SF-268 CNS; SW-620 colon; HCT-116 colon; NCI-H522 lung; T-47D breast; UACC-62 melanoma.
What all share (test): DTP human tumour cell line panel, 48 h

Molecules are shown by their SMILES.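 Following 48 hours of exposure in 96-well plates, responses at five concentrations were used to interpolate endpoints linearly. The concentration for 50% growth inhibition is given as GI50. TGI: concentration producing complete growth inhibition.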

In the case of `O=C(Nc1cccc(-n2cc(-c3ccncc3)c(-c3cc(O)cc(Cl)c3)n2)c1)c1ccc(N2CCOCC2)c(C(F)(F)F)c1`, the GI50 was 1640 nM with A549 NSCLC; 5650 nM in the assay on DU-145 prostate; 1410 nM with UO-31 renal; 722 nM in the assay with SNB-75 CNS; 8510 nM in the assay with SF-268 CNS; 2830 nM in the assay on SW-620 colon. For the same compound, the GI50 was 1960 nM in the assay on HCT-116 colon, 934 nM in the assay with NCI-H522 lung, 3810 nM in the assay on T-47D breast and 1720 nM in the assay with UACC-62 melanoma. The TGI was 18000 nM in the assay with A549 NSCLC; above 100000 nM in the assay on DU-145 prostate; 15500 nM in the assay on UO-31 renal; above 100000 nM in the assay on SNB-75 CNS; above 100000 nM with SF-268 CNS; 7060 nM with SW-620 colon. The TGI in the assay with HCT-116 colon is above 100000 nM; with NCI-H522 lung it was 12100 nM; in the assay on T-47D breast, above 100000 nM; in the assay with UACC-62 melanoma, 9380 nM.

As to `CC1(C)N=C(N)N=C(N)N1c1ccc(CCC(=O)Nc2ccc(S(=O)(=O)F)cc2)cc1`, the GI50 in the assay on A549 NSCLC is 2870 nM; with DU-145 prostate, 871 nM; with UO-31 renal, 34100 nM; with SNB-75 CNS, 2420 nM; in the assay on SF-268 CNS, 1310 nM; in the assay on SW-620 colon it was 371 nM. Besides, the 50% growth inhibitory concentration (GI50) in the assay on HCT-116 colon is 425 nM; in the assay on NCI-H522 lung it was 1260 nM; in the assay with T-47D breast it was 16200 nM; with UACC-62 melanoma, 388 nM. Moreover, the TGI in the assay on A549 NSCLC, with DU-145 prostate, in the assay on UO-31 renal, in the assay on SNB-75 CNS, in the assay on SF-268 CNS and in the assay on SW-620 colon was above 100000 nM each time. The total growth inhibition concentration (TGI) in the assay on HCT-116 colon, with NCI-H522 lung, in the assay on T-47D breast and with UACC-62 melanoma was above 100000 nM each time.

In the case of `CC(Br)C(=O)NC(CO)C(=O)O` (stereo not given), the total growth inhibition concentration (TGI) in the assay on A549 NSCLC, in the assay on DU-145 prostate, in the assay with UO-31 renal, in the assay with SNB-75 CNS, in the assay with SF-268 CNS and in the assay on SW-620 colon was above 100000 nM throughout. For the same compound, the TGI in the assay with HCT-116 colon, in the assay with NCI-H522 lung, in the assay on T-47D breast and in the assay on UACC-62 melanoma was above 100000 nM in each case.

On to `CCNc1nc(O)c(/C=C2\C=Nc3ncccc32)s1`, for which the GI50 is 16500 nM in the assay with A549 NSCLC; 3250 nM in the assay on DU-145 prostate; 3440 nM in the assay with UO-31 renal; 1920 nM with SNB-75 CNS; 2300 nM with SF-268 CNS; 3420 nM in the assay on SW-620 colon. For the same compound, the GI50 is 2500 nM in the assay with HCT-116 colon, 1250 nM in the assay with NCI-H522 lung, 2020 nM in the assay with T-47D breast and 3010 nM in the assay on UACC-62 melanoma. For the same compound, the TGI with A549 NSCLC is above 100000 nM; in the assay on DU-145 prostate it was 47400 nM; in the assay with UO-31 renal, above 100000 nM; with SNB-75 CNS, 4250 nM; with SF-268 CNS, 7850 nM; in the assay with SW-620 colon, 27100 nM. In addition, the TGI in the assay with HCT-116 colon is above 100000 nM; in the assay on NCI-H522 lung it was 8830 nM; in the assay with T-47D breast, 7620 nM; in the assay on UACC-62 melanoma, 9110 nM.

For the compound `CCN=c1sc2c(n1NC(=O)c1cc3ccc1CCc1ccc(cc1)CC3)C(=O)c1ccccc1C2=O`, the GI50 with A549 NSCLC is 738 nM; in the assay with DU-145 prostate, 632 nM; in the assay on UO-31 renal, 356 nM; with SNB-75 CNS, 231 nM; in the assay with SF-268 CNS, 604 nM; in the assay with SW-620 colon it was 593 nM. Besides, the GI50 with HCT-116 colon was 754 nM; with NCI-H522 lung, 540 nM; in the assay on T-47D breast, 706 nM; in the assay with UACC-62 melanoma, 593 nM. The total growth inhibition concentration (TGI) in the assay with A549 NSCLC is 1710 nM; with DU-145 prostate it was 1160 nM; in the assay with UO-31 renal, 960 nM; in the assay on SNB-75 CNS, 787 nM; with SF-268 CNS, 1620 nM; in the assay with SW-620 colon, 1290 nM. The concentration for total growth inhibition (TGI) with HCT-116 colon was 2070 nM; in the assay on NCI-H522 lung it was 1310 nM; in the assay on T-47D breast, 2340 nM; in the assay on UACC-62 melanoma, 1200 nM.

Regarding `COc1ccc2sc3c(NCCCN)nc4ccccc4c3c(=O)c2c1`, the GI50 is 1640 nM in the assay with A549 NSCLC; 1810 nM with DU-145 prostate; 1430 nM in the assay with UO-31 renal; 1380 nM in the assay with SNB-75 CNS; 1660 nM in the assay on SF-268 CNS; 1760 nM in the assay with SW-620 colon. The GI50 is 1500 nM with HCT-116 colon, 1630 nM in the assay on NCI-H522 lung, 1740 nM in the assay on T-47D breast and 1720 nM with UACC-62 melanoma. The TGI in the assay on A549 NSCLC came to 3390 nM; in the assay on DU-145 prostate, 3310 nM; in the assay with UO-31 renal it was 2820 nM; in the assay on SNB-75 CNS it was 2720 nM; with SF-268 CNS, 3440 nM; in the assay on SW-620 colon, 3440 nM. Further, the concentration for total growth inhibition (TGI) in the assay on HCT-116 colon was determined as 2850 nM; in the assay on NCI-H522 lung it was 3490 nM; with T-47D breast, 3650 nM; in the assay with UACC-62 melanoma, 3210 nM.
